Assay results: the NIST ThermoML archive (doi:10.1016/j.jct.2004.10.011)
Numbers after ± are expanded uncertainties.

Test: xn = mol fraction of the nth substance listed
Settings: Liquid, Vibrating tube method, x1 = 1

Molecule `Cc1ccccc1` [toluene] + CCC(=O)c1ccccc1 has a mass density (298.15 K, 100 kPa) of 862.1 ± 0.26 kg/m3, a mass density (298.15 K, 2130 kPa) of 863.6 ± 0.27 kg/m3 and a mass density (298.15 K, 4150 kPa) of 865.2 ± 0.27 kg/m3. The mass density (298.15 K, 6180 kPa) was 866.7 ± 0.27 kg/m3, the mass density (298.15 K, 8210 kPa) was 868.2 ± 0.27 kg/m3 and the mass density (298.15 K, 10230 kPa) was 869.6 ± 0.28 kg/m3. It also gave a mass density (298.15 K, 11250 kPa) of 870.4 ± 0.28 kg/m3, a mass density (298.15 K, 12260 kPa) of 871.1 ± 0.28 kg/m3 and a mass density (298.15 K, 14290 kPa) of 872.5 ± 0.28 kg/m3. It also gave a mass density (298.15 K, 16310 kPa) of 873.9 ± 0.29 kg/m3, a mass density (298.15 K, 18340 kPa) of 875.3 ± 0.29 kg/m3 and a mass density (298.15 K, 20370 kPa) of 876.7 ± 0.29 kg/m3. For the same molecule, the mass density (298.15 K, 22390 kPa) was 878 ± 0.29 kg/m3, the mass density (298.15 K, 24420 kPa) was 879.3 ± 0.3 kg/m3 and the mass density (298.15 K, 26450 kPa) was 880.6 ± 0.3 kg/m3. It also gave a mass density (298.15 K, 28470 kPa) of 881.9 ± 0.31 kg/m3, a mass density (298.15 K, 29490 kPa) of 882.5 ± 0.31 kg/m3 and a mass density (298.15 K, 30500 kPa) of 883.2 ± 0.31 kg/m3. It also gave a mass density (298.15 K, 32530 kPa) of 884.4 ± 0.31 kg/m3, a mass density (298.15 K, 34550 kPa) of 885.6 ± 0.32 kg/m3 and a mass density (298.15 K, 36580 kPa) of 886.8 ± 0.32 kg/m3. The mass density (298.15 K, 38600 kPa) was 888 ± 0.32 kg/m3, the mass density (298.15 K, 39620 kPa) was 888.6 ± 0.33 kg/m3 and the mass density (308.15 K, 100 kPa) was 853 ± 0.27 kg/m3. For the same molecule, the mass density (308.15 K, 2130 kPa) was 854.5 ± 0.27 kg/m3, the mass density (308.15 K, 4150 kPa) was 856.2 ± 0.28 kg/m3 and the mass density (308.15 K, 6180 kPa) was 857.8 ± 0.28 kg/m3. It also gave a mass density (308.15 K, 8210 kPa) of 859.3 ± 0.28 kg/m3, a mass density (308.15 K, 10230 kPa) of 860.9 ± 0.29 kg/m3 and a mass density (308.15 K, 11250 kPa) of 861.7 ± 0.29 kg/m3. For the same molecule, the mass density (308.15 K, 12260 kPa) was 862.4 ± 0.29 kg/m3, the mass density (308.15 K, 14290 kPa) was 863.9 ± 0.29 kg/m3 and the mass density (308.15 K, 16310 kPa) was 865.4 ± 0.29 kg/m3. For the same molecule, the mass density (308.15 K, 18340 kPa) was 866.8 ± 0.3 kg/m3, the mass density (308.15 K, 20370 kPa) was 868.2 ± 0.3 kg/m3 and the mass density (308.15 K, 22390 kPa) was 869.6 ± 0.3 kg/m3. For the same molecule, the mass density (308.15 K, 24420 kPa) was 871 ± 0.31 kg/m3, the mass density (308.15 K, 26450 kPa) was 872.4 ± 0.31 kg/m3 and the mass density (308.15 K, 28470 kPa) was 873.8 ± 0.32 kg/m3. It also gave a mass density (308.15 K, 29490 kPa) of 874.4 ± 0.31 kg/m3, a mass density (308.15 K, 30500 kPa) of 875 ± 0.32 kg/m3 and a mass density (308.15 K, 32530 kPa) of 876.3 ± 0.32 kg/m3. It also gave a mass density (308.15 K, 34550 kPa) of 877.6 ± 0.33 kg/m3, a mass density (308.15 K, 36580 kPa) of 878.9 ± 0.33 kg/m3 and a mass density (308.15 K, 38600 kPa) of 880.1 ± 0.33 kg/m3. For the same molecule, the mass density (308.15 K, 39620 kPa) was 880.7 ± 0.35 kg/m3, the mass density (318.15 K, 100 kPa) was 843.8 ± 0.29 kg/m3 and the mass density (318.15 K, 2130 kPa) was 845.6 ± 0.28 kg/m3. The mass density (318.15 K, 4150 kPa) was 847.3 ± 0.29 kg/m3, the mass density (318.15 K, 6180 kPa) was 849 ± 0.29 kg/m3 and the mass density (318.15 K, 8210 kPa) was 850.6 ± 0.29 kg/m3. It also gave a mass density (318.15 K, 10230 kPa) of 852.3 ± 0.29 kg/m3, a mass density (318.15 K, 11250 kPa) of 853.1 ± 0.29 kg/m3 and a mass density (318.15 K, 12260 kPa) of 853.9 ± 0.29 kg/m3. For the same molecule, the mass density (318.15 K, 14290 kPa) was 855.4 ± 0.3 kg/m3, the mass density (318.15 K, 16310 kPa) was 857 ± 0.3 kg/m3 and the mass density (318.15 K, 18340 kPa) was 858.5 ± 0.3 kg/m3. It also gave a mass density (318.15 K, 20370 kPa) of 860 ± 0.31 kg/m3, a mass density (318.15 K, 22390 kPa) of 861.5 ± 0.31 kg/m3 and a mass density (318.15 K, 24420 kPa) of 862.9 ± 0.32 kg/m3. For the same molecule, the mass density (318.15 K, 26450 kPa) was 864.4 ± 0.32 kg/m3, the mass density (318.15 K, 28470 kPa) was 865.8 ± 0.33 kg/m3 and the mass density (318.15 K, 29490 kPa) was 866.5 ± 0.33 kg/m3. The mass density (318.15 K, 30500 kPa) was 867.2 ± 0.33 kg/m3, the mass density (318.15 K, 32530 kPa) was 868.5 ± 0.33 kg/m3 and the mass density (318.15 K, 34550 kPa) was 869.9 ± 0.34 kg/m3. The mass density (318.15 K, 36580 kPa) was 871.2 ± 0.34 kg/m3, the mass density (318.15 K, 38600 kPa) was 872.5 ± 0.35 kg/m3 and the mass density (318.15 K, 39620 kPa) was 873.2 ± 0.35 kg/m3. The mass density (328.15 K, 100 kPa) was 834.5 ± 0.3 kg/m3, the mass density (328.15 K, 2130 kPa) was 836.5 ± 0.29 kg/m3 and the mass density (328.15 K, 4150 kPa) was 838.3 ± 0.29 kg/m3. For the same molecule, the mass density (328.15 K, 6180 kPa) was 840.1 ± 0.29 kg/m3, the mass density (328.15 K, 8210 kPa) was 841.8 ± 0.3 kg/m3 and the mass density (328.15 K, 10230 kPa) was 843.5 ± 0.3 kg/m3. It also gave a mass density (328.15 K, 11250 kPa) of 844.4 ± 0.3 kg/m3, a mass density (328.15 K, 12260 kPa) of 845.2 ± 0.3 kg/m3 and a mass density (328.15 K, 14290 kPa) of 846.9 ± 0.31 kg/m3. For the same molecule, the mass density (328.15 K, 16310 kPa) was 848.6 ± 0.31 kg/m3, the mass density (328.15 K, 18340 kPa) was 850.1 ± 0.31 kg/m3 and the mass density (328.15 K, 20370 kPa) was 851.7 ± 0.32 kg/m3. For the same molecule, the mass density (328.15 K, 22390 kPa) was 853.3 ± 0.32 kg/m3, the mass density (328.15 K, 24420 kPa) was 854.8 ± 0.33 kg/m3 and the mass density (328.15 K, 26450 kPa) was 856.3 ± 0.33 kg/m3. It also gave a mass density (328.15 K, 28470 kPa) of 857.8 ± 0.34 kg/m3, a mass density (328.15 K, 29490 kPa) of 858.5 ± 0.34 kg/m3 and a mass density (328.15 K, 30500 kPa) of 859.3 ± 0.34 kg/m3. For the same molecule, the mass density (328.15 K, 32530 kPa) was 860.7 ± 0.34 kg/m3, the mass density (328.15 K, 34550 kPa) was 862.1 ± 0.35 kg/m3 and the mass density (328.15 K, 36580 kPa) was 863.5 ± 0.35 kg/m3. The mass density (328.15 K, 38600 kPa) was 864.9 ± 0.36 kg/m3 and the mass density (328.15 K, 39620 kPa) was 865.5 ± 0.35 kg/m3.
